Laboratory results reported in US20150196612A1, “Anti-enterovirus 71 steroidal saponins and their preparation” (Shanghai University of Traditional Chinese Medicine, priority 2014, published 2015).

Columns and labels:
enterovirus 71 (EV71) = assay: anti-EV71 activity (antiviral bioassay); assay type: cell-based
[1] = cytotoxicity (CC50) of steroidal saponins
[2] = test system: respiratory syncytial virus (RSV); details: read-out: IC50, inhibitory effects on RSV; cited from earlier work

## CC1=C(CCC(C)CO[C@@H]2O[C@H](CO)[C@@H](O)[C@H](O)[C@H]2O)O[C@H]2CC3C4CCC5CC(O[C@@H]6O[C@H](CO)[C@H](O)[C@H](O)[C@H]6O[C@@H]6O[C@H](CO)[C@@H](O)[C@H](O)[C@H]6O)CC[C@]5(C)C4CC[C@]3(C)[C@@H]12 (stereo partly drawn) [compound 3, anemarsaponin B]
Enterovirus 71 (EV71); FIG. 6
  anti-EV71 activity of compounds (in words): completely inactive

## C[C@@H](CC[C@@]1(O)O[C@H]2C[C@H]3[C@@H]4CC[C@@H]5C[C@@H](O[C@@H]6O[C@H](CO)[C@H](O)[C@H](O)[C@H]6O[C@@H]6O[C@H](CO)[C@@H](O)[C@H](O)[C@H]6O)CC[C@]5(C)[C@H]4CC[C@]3(C)[C@H]2[C@@H]1C)CO[C@@H]1O[C@H](CO)[C@@H](O)[C@H](O)[C@H]1O [compound 2, timosaponin B-II]
Enterovirus 71 (EV71); FIG. 6
  Selective Index (SI): 92.876
Enterovirus 71 (EV71); relative to ribavirin
  IC50 as percentage of that of positive control ribavirin: 1%
  selectivity index relative to ribavirin's: more than 40 times
[1]
  CC50: 401000 nM

## C[C@H]1CC[C@@]2(OC1)O[C@H]1C[C@H]3[C@@H]4CC[C@@H]5C[C@@H](O[C@@H]6O[C@H](CO)[C@H](O)[C@H](O)[C@H]6O[C@@H]6O[C@H](CO)[C@@H](O)[C@H](O)[C@H]6O)CC[C@]5(C)[C@H]4CC[C@]3(C)[C@H]1[C@@H]2C [compound 7, timosaponin A-III]
Enterovirus 71 (EV71); FIG. 6, read-out: IC50 (50% inhibitory concentration), anti-EV71
  IC50: 1060 nM
[2]
  IC50: 1000 nM

## NC(=O)c1ncn([C@@H]2O[C@H](CO)[C@@H](O)[C@H]2O)n1 [Ribavirin, ribavirin, reference compound]
Enterovirus 71 (EV71); FIG. 6
  Selective Index (SI): 2.365

## C[C@H]1CC[C@@]2(OC1)O[C@H]1C[C@H]3[C@@H]4CC[C@@H]5C[C@@H](O)CC[C@]5(C)[C@H]4CC[C@]3(C)[C@H]1[C@@H]2C [compound 8, Sarsasapogenin, reference compound]
Enterovirus 71 (EV71); FIG. 6
  anti-EV71 activity of compounds (in words): completely inactive
